According to ChEMBL document CHEMBL1123256, “Neuroleptics from the 4a,9b-trans-2,3,4,4a,5,9b-hexahydro-1H-pyrido[4,3-b]indole series. 3. Carboxamidoalkyl derivatives” (J Med Chem, 1986):
Values belong to the molecule of their own block, whether it stands above or below them.

How the values were obtained:
Rattus norvegicus [1] = test: Compound was tested in vivo for its ability to antagonize the stereotypy in rats induced by d-amphetamine sulfate 5 hr later of the treatment; value ranges from 0.1-0.032; format: functional
Dopamine receptor [2] = molecular target: Dopamine receptor
Description: Compound was tested in vitro for its ability to displace [3H]spiroperidol from labeled dopamine receptors of corpus striatum

Rattus norvegicus [3] = test: Compound was tested in vivo for its ability to antagonize the stereotypy in rats induced by d-amphetamine sulfate 1 hr later of the treatment; value ranges from 0.03-0.1; format: functional
Rattus norvegicus [4] = test: Compound was tested in vivo for its ability to antagonize the stereotypy in rats induced by d-amphetamine sulfate 24 hr later of the treatment; value ranges from 0.32-1.0; format: functional
Dopamine receptor [5] = molecular target: Dopamine receptor; remark: listed apart in the source
Description: Ability to displace [3H]spiroperidol from labeled Dopamine receptor of corpus striatum

Rattus norvegicus [6] = test: Compound was tested in vivo for its ability to antagonize the stereotypy in rats induced by d-amphetamine sulfate 1 hr later of the treatment; value ranges from 0.1-0.32; format: functional
Dopamine receptor [7] = test: Compound was tested in vitro for its ability to displace [3H]spiroperidol from labeled Dopamine receptor of corpus striatum; format: functional
Rattus norvegicus [8] = test: Compound was tested in vivo for its ability to antagonize the stereotypy in rats induced by d-amphetamine sulfate 5 h later of the treatment; value ranges from 0.32-1.0; format: functional

SMILES: Cl.O=C1CCCCN1CCCCN1CC[C@@H]2C(C1)c1cc(F)ccc1N2c1ccc(F)cc1 (some centres not stated)
- ED50 (Rattus norvegicus [1]): 0.032 mg/kg
- IC50 (Dopamine receptor [2]): 6.2 nM

SMILES: Cl.N#CCCCN1CC[C@@H]2C(C1)c1cc(F)ccc1N2c1ccc(F)cc1 (some centres not stated)
- ED50 (Rattus norvegicus [6]): 0.1 mg/kg

SMILES: Cl.O=C1c2ccccc2C(=O)N1CCCCN1CC[C@@H]2C(C1)c1cc(F)ccc1N2c1ccc(F)cc1 (some centres not stated)
- IC50 (Dopamine receptor [2]): 27 nM

SMILES: Cl.O=c1oc2ccccc2n1CCCCN1CC[C@@H]2C(C1)c1cc(F)ccc1N2c1ccc(F)cc1 (some centres not stated)
- ED50 (Rattus norvegicus [8]): 0.32 mg/kg
- IC50 (Dopamine receptor [2]): 28 nM

SMILES: CC(C(=O)CN1CC[C@@H]2C(C1)c1cc(F)ccc1N2c1ccc(F)cc1)c1ncco1.Cl (some centres not stated)
- IC50 (Dopamine receptor [5]): 10 nM

The next lines start with results.

- IC50 (Dopamine receptor [5]): 10 nM
SMILES: CC(=O)NCCCN1CC[C@@H]2C(C1)c1cc(F)ccc1N2c1ccc(F)cc1.Cl (some centres not stated)
- ED50 (Rattus norvegicus [3]): 0.03 mg/kg
- ED50 (Rattus norvegicus [4]): 0.32 mg/kg

- IC50 (Dopamine receptor [5]): 28 nM
SMILES: Cl.NCCCCN1CC[C@@H]2C(C1)c1cc(F)ccc1N2c1ccc(F)cc1 (some centres not stated)

- IC50 (Dopamine receptor [5]): 16 nM
SMILES: CC(=O)NCCN1CC[C@@H]2C(C1)c1cc(F)ccc1N2c1ccc(F)cc1.Cl (some centres not stated)

- IC50 (Dopamine receptor [5]): 15 nM
SMILES: CC(=O)NCCCCN1CC[C@@H]2C(C1)c1cc(F)ccc1N2c1ccc(F)cc1.Cl (some centres not stated)

- IC50 (Dopamine receptor [5]): 9 nM
SMILES: CC(=O)NCCCCCN1CC[C@@H]2C(C1)c1cc(F)ccc1N2c1ccc(F)cc1.Cl (some centres not stated)

- IC50 (Dopamine receptor [7]): 9 nM
SMILES: CC(=O)NCCCCCCCN1CC[C@@H]2C(C1)c1cc(F)ccc1N2c1ccc(F)cc1.Cl (some centres not stated)

- IC50 (Dopamine receptor [5]): 8 nM
SMILES: CC(=O)NCCCCCCN1CC[C@@H]2C(C1)c1cc(F)ccc1N2c1ccc(F)cc1.Cl (some centres not stated)

- IC50 (Dopamine receptor [5]): 11 nM
SMILES: CCOC(=O)NCCCCN1CC[C@@H]2C(C1)c1cc(F)ccc1N2c1ccc(F)cc1.Cl (some centres not stated)
